According to ChEMBL document CHEMBL1125184, “Active conformation of 1,4-dihydropyridine calcium entry blockers. Effect of size of 2-aryl substituent on rotameric equilibria and receptor binding” (J Med Chem, 1991):

test: Slope was measured from percentage of specific binding with time

Slope	SMILES
1.4	CCCC(=O)OC.CO/C(O)=C1/C(C)=NCCC1c1ccccc1Cl (centres undefined)
1.2	CCCC(=O)OC.CO/C(O)=C1/C(C)=NCCC1c1ccccc1I (centres undefined)
1.3	CCCC(=O)OC.CO/C(O)=C1/C(C)=NCCC1c1ccccc1Br (centres undefined)
1.6	CCCC(=O)OC.CO/C(O)=C1/C(C)=NCCC1c1ccccc1F (centres undefined)
